Paper PMC3056842 (Malaria Journal, 2011)
Where “and” joins values, the source holds several entries; their conditions need not be identical. Equal entries are not always repeated. Entries after “also recorded” stand apart in the source; their conditions may differ. One block for each compound: values may come before it.

Columns and labels:
Plasmodium falciparum [1] = test: Pharmacodynamics of AS: parasitaemia on malaria smears after dosing; assay type: in vivo; conditions: for Parasitaemic - n (%) / Parasite density (where > 0): 12 hours after 200 mg oral AS
Procedure: To determine if women met the eligibility criteria, a complete medical history and physical examination was performed by a study physician; sociodemographic data was collected by a study nurse. Haematocrit was measured using a microhaematocrit centrifuge (Hawksley Haematospin 1400, Hawksley & Sons, Ltd, UK). Thick and thin blood films were stained with Giemsa and then read to determine parasite species and the density of P. falciparum asexual stages. Parasite density, based on examination of at least 200 high-power microscope fields, was calculated as (# trophozoites/#white blood cells)*6000. Human Immunodeficiency Virus (HIV) serology was determined using the Determine 1/2 HIV Test Kit (Inverness Medical Professional Diagnostics, Princeton, NJ). Liver function was assessed by measuring aspartate aminotransferase (AST) and alanine aminotransferase (ALT) in plasmaPiccolo Portable Chemistry Analyser, Abaxis, USA). Alpha-1-Acid glycoprotein was determined in serum samples using radial immunodiffusion (Kent Laboratories, Bellingham, WA, USA). […]

clinical = conditions: for CL/F: DHA CL/F; for fraction unbound: DHA FF (free fraction); for Tmax: DHA Tmax; for half-life: DHA T½; for Vd/F: DHA Vd/F
Procedure: The four tablets were given orally with 240 mL water under medical supervision. A catheter was inserted into a forearm vein for pharmacokinetic sample collection and flushed after each blood draw with saline solution. […] Blood for malaria smears were taken by finger prick at pre-dose and at 12, 24, 30, 36, 42 and 48 hours post-dose. Malaria smears were also performed on days 7, 14 and 28.
The persistence of malaria infection and adverse events were tracked for 28 days after SP administration. Babies born from the pregnant women cohort were followed until one year of age and development assessed.
The reconstituted extracts were chromatographed isocratically and the compounds detected and quantified by mass spectroscopy.
Concentrations below the lower limit of quantification were assigned a value of zero.
The ratio of the AUC during pregnancy to the AUC at postpartum (after log transformation) was considered a measure of the impact of pregnancy on systemic exposure. […] The "no effect" interval was selected based on the dose-ranging study by Angus and coworkers. […] Statistical analyses were performed using SAS/STAT software, version 9.2 (SAS Institute, Inc., Cary, NC, 2008). […] Spearman correlations were used to look for associations among the pregnant and control population. All p-values were 2-sided.

[2] = parameters: species or system human; conditions: in vivo
Procedure: To determine if women met the eligibility criteria, a complete medical history and physical examination was performed by a study physician; sociodemographic data was collected by a study nurse. Haematocrit was measured using a microhaematocrit centrifuge (Hawksley Haematospin 1400, Hawksley & Sons, Ltd, UK). Thick and thin blood films were stained with Giemsa and then read to determine parasite species and the density of P. falciparum asexual stages. […] Human Immunodeficiency Virus (HIV) serology was determined using the Determine 1/2 HIV Test Kit (Inverness Medical Professional Diagnostics, Princeton, NJ). Liver function was assessed by measuring aspartate aminotransferase (AST) and alanine aminotransferase (ALT) in plasmaPiccolo Portable Chemistry Analyser, Abaxis, USA). Alpha-1-Acid glycoprotein was determined in serum samples using radial immunodiffusion (Kent Laboratories, Bellingham, WA, USA).

Plasmodium falciparum [3] = conditions: sigmoid Emax pharmacodynamic model of PCT; cited from earlier work
[4] = artesunate 4 mg/kg with Malarone, final day of three day course; second and third trimester pregnant women, Thailand; 90% range 0.9-60.7; cited from earlier work
[5] = female, human, plasma, po, 200 mg, 200 mg oral AS, ante-partum pregnant cases, median [range]
[6] = female, human, plasma, po, 200 mg, 200 mg oral AS, non-pregnant controls, median [range]
[7] = female, human, plasma, po, 200 mg, 200 mg oral AS, post-partum (3 months), median [range]

range of AS AUCs among the subjects (clinical; female, human, in vivo, po, 200 mg): more than 17 fold | AUC (clinical; female, human, in vivo, po, 200 mg, median AS AUC): 205 ng·h/mL | pregnancy outcome [2]: singleton live births
SMILES: C[C@H]1[C@H](OC(=O)CCC(=O)O)O[C@@H]2O[C@@]3(C)CC[C@H]4[C@H](C)CC[C@@H]1[C@@]24OO3 [AS, artesunate]
aparasitaemic at 12 hours among those parasitaemic at t = 0 (Plasmodium falciparum [1]; 200 mg oral AS, 13 of the 14 non-pregnant controls): 93% | aparasitaemic at 12 hrs among those parasitaemic at t = 0 (Plasmodium falciparum [1]; 200 mg oral AS, 21 of the 24 pregnant women): 87.5% | Parasitaemic - n (%) (Plasmodium falciparum [1]; all pregnant cases, N 26): 3 (11.5) | Parasite density (where > 0) (Plasmodium falciparum [1]; all pregnant cases, median (interquartile range)): 87 (44 - 286) parasites/μL | Parasitaemic - n (%) (Plasmodium falciparum [1]; non-pregnant controls, N 25): 1 (4.0) | Parasite density (where > 0) (Plasmodium falciparum [1]; non-pregnant controls, median): 24 -- parasites/μL | Parasitaemic - n (%) (Plasmodium falciparum [1]; pregnant cases Window 1 (22-26 wks GA), N 13): 3 (23.1) | Parasite density (where > 0) (Plasmodium falciparum [1]; pregnant cases Window 1, median (interquartile range)): 87 (44 - 286) parasites/μL | Parasitaemic - n (%) (Plasmodium falciparum [1]; pregnant cases Window 2 (32-36 wks GA), N 13): 0 (0) | efficacy (in words) (Plasmodium falciparum [1]; single 200 mg oral dose of AS, second and third trimester pregnant women): effective; also recorded: rapid clearance of parasitaemia | infant development at one year of age [2]: normal physical and neurological development | Hill slope coefficient (Plasmodium falciparum [3]): 10

median free AUC for DHA in pregnant women as percentage of non-pregnant controls (clinical; 200 mg oral AS): 79% | median total AUC for DHA in pregnant women as percentage of non-pregnant controls (clinical; 200 mg oral AS): 62% | DHA AUCall (clinical; 200 mg oral AS, ante-partum pregnant cases, median [range]): 1730.5 [1034.7 - 4085.5] ng*h/mL | DHA T½ (clinical; 200 mg oral AS, non-pregnant controls, median [range]): 1.41 [0.86 - 6.55] h | AUC (clinical; female, human, plasma, po, 200 mg, DHA AUCall, 200 mg oral AS, ante-partum pregnant cases, median [range]): 1730 ng·h/mL | AUC (clinical; female, human, plasma, po, 200 mg, DHA AUCall, 200 mg oral AS, non-pregnant controls, median [range]): 2790 ng·h/mL | AUC (clinical; female, human, plasma, po, 200 mg, DHA AUCall, 200 mg oral AS, post-partum (3 months), median [range]): 2120 ng·h/mL | CL/F (clinical; [5]): 23.2 mL/min/kg | CL/F (clinical; [6]): 17.8 mL/min/kg | CL/F (clinical; [7]): 21 mL/min/kg | Cmax (clinical; female, human, plasma, po, 200 mg, DHA Cmax, 200 mg oral AS, ante-partum pregnant cases, median [range]): 905 ng/mL | Cmax (clinical; female, human, plasma, po, 200 mg, DHA Cmax, 200 mg oral AS, non-pregnant controls, median [range]): 1280 ng/mL | Cmax (clinical; female, human, plasma, po, 200 mg, DHA Cmax, 200 mg oral AS, post-partum (3 months), median [range]): 980 ng/mL | fraction unbound (clinical; [5]): 0.21 | fraction unbound (clinical; [6]): 0.18 | fraction unbound (clinical; [7]): 0.19 | Tmax (clinical; [5]): 1.5 h | Tmax (clinical; [6]): 1.52 h | Tmax (clinical; [7]): 1.5 h | half-life (clinical; [5]): 1.28 h | half-life (clinical; [7]): 1.63 h | Vd/F (clinical; [5]): 157 L and 2.84 L/kg | Vd/F (clinical; [6]): 128 L and 2.45 L/kg | Vd/F (clinical; [7]): 158 L and 3 L/kg | Cmax (clinical; female, human, plasma, po, 200 mg, median DHA Cmax, 200 mg oral AS, non-pregnant control group): 1280 ng/mL | Cmax (clinical; female, human, plasma, po, 200 mg, median DHA Cmax, 200 mg oral AS, pregnant group): 905 ng/mL
SMILES: C[C@H]1[C@@H](O)O[C@@H]2O[C@@]3(C)CC[C@H]4[C@H](C)CC[C@@H]1[C@@]24OO3 [DHA, dihydroartemisinin]
median DHA Vd/F [4]: 3.4 L/kg
